Source: patent US20230416329A1, “A PEPTIDE WITH DISULFIDE BONDS AND INHIBITORY ACTIVITY AGAINST SERINE PROTEASES, DERIVED HYBRID PEPTIDES THEREOF, AND USES THEREOF” (INSTITUTE OF MATERIA MEDICA , CHINESE ACADEMY OF MEDICAL …, priority 2020, published 2023)
Like-named read-outs stand apart in the source and are kept apart here. Bridge positions count the residues as written; N and C are the ends. Square brackets hold non-standard residues; d marks the D form. Peptide text beside a SMILES is read from it. Hyp = O=C(O)[C@@H]1C[C@@H](O)CN1

Biological target: T1, bovine trypsin (Bos taurus, UniProt P00760)
T1 sequence (P00760 24-246): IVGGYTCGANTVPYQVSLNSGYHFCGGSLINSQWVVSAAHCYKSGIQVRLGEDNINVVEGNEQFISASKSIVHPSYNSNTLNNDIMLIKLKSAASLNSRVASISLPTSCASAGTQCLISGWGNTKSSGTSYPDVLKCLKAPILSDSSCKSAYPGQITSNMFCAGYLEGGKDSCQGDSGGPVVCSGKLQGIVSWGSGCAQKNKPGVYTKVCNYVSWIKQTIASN
Test: Trypsin inhibitory activity of peptides (BApNA hydrolysis, OD405; IC50, Ki, residual activity)
Assay type: biochemical
Settings: for Ki: Ki=IC50/(1+S/Km), Km 0.33 mM, read-out: Ki; for IC50: trypsin 50 nM, BApNA 1.22 mM, read-out: IC50
In short: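 Trypsin (50 nM final) preincubated with peptides at 37 °C in 50 mM Tris-HCl pH 7.8, 20 mM CaCl2; BApNA added (1.22 mM final), 260 min at 37 °C, then OD405 read. Residual activity from enzyme-only and substrate-only controls; IC50 fitted and converted to Ki via Ki=IC50/(1+S/Km), Km measured separately for BApNA.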

Compound | Ki | IC50 | inhibitory activity against trypsin (in words) | further results
CC[C@H](C)[C@@H]1NC(=O)[C@H](CO)NC(=O)[C@H](CCCNC(=N)N)NC(=O)[C@H]([C@@H](C)O)NC(=O)[C@@H](NC(=O)[C@@H](N)CCCNC(=N)N)CSSC[C@@H](C(=O)N[C@@H](Cc2c[nH]c3ccccc23)C(=O)O)NC(=O)[C@H](Cc2c[nH]cn2)NC(=O)[C@@H]2CCCN2C(=O)[C@@H]2CCCN2C1=O [BT61] (H-RCTRSIPPHCW-OH; disulfide 2-10; N-terminus and C-terminus assumed) | 190 nM |  |  | 
CC[C@H](C)[C@@H]1NC(=O)[C@H](CO)NC(=O)[C@H](CCCCN)NC(=O)[C@H]([C@@H](C)O)NC(=O)[C@@H](NC(=O)[C@@H](N)CCCNC(=N)N)CSSC[C@@H](C(=O)N[C@@H](Cc2ccccc2)C(=O)O)NC(=O)[C@H](Cc2c[nH]cn2)NC(=O)[C@@H]2CCCN2C(=O)[C@@H]2CCCN2C1=O [BT62] (H-RCTKSIPPHCF-OH; disulfide 2-10; N-terminus and C-terminus assumed) | 10 nM | 70 nM |  | 
CC[C@H](C)[C@@H]1NC(=O)[C@H](CO)NC(=O)[C@H](CCCCN)NC(=O)[C@H]([C@@H](C)O)NC(=O)[C@@H](NC(=O)[C@@H](N)CCCNC(=N)N)CSSC[C@@H](C(=O)N[C@@H](Cc2c[nH]cn2)C(=O)O)NC(=O)[C@H](CCC(N)=O)NC(=O)[C@@H]2CCCN2C(=O)[C@@H]2CCCN2C1=O [BT63] (H-RCTKSIPPQCH-OH; disulfide 2-10; N-terminus and C-terminus assumed) | 20 nM | 90 nM |  | 
CC(C)C[C@@H]1NC(=O)[C@H](CO)NC(=O)[C@H](CCCCN)NC(=O)[C@H]([C@@H](C)O)NC(=O)[C@@H](NC(=O)[C@@H](N)CCCNC(=N)N)CSSC[C@@H](C(=O)N[C@@H](CO)C(=O)O)NC(=O)[C@H](CCC(N)=O)NC(=O)[C@@H]2CCCN2C(=O)[C@@H]2CCCN2C1=O [BT65] (H-RCTKSLPPQCS-OH; disulfide 2-10; C-terminus assumed) | 130 nM |  | excellent trypsin inhibitory activities | 
CC[C@H](C)[C@@H]1NC(=O)[C@@H]2CCCN2C(=O)[C@@H]2CCCN2C(=O)[C@H]([C@@H](C)CC)NC(=O)[C@H](CO)NC(=O)[C@H](CCCCN)NC(=O)[C@H]([C@@H](C)O)NC(=O)[C@H](C)NC(=O)[C@H](CCCNC(=N)N)NC(=O)[C@@H]2CCCN2C(=O)[C@@H](N)CSSC[C@@H](C(=O)N[C@@H](Cc2ccccc2)C(=O)O)NC1=O [BT66] (H-CPRATKSIPPICF-OH; disulfide 1-12; C-terminus assumed) | 10 nM | 60 nM | higher trypsin inhibitory activities | inhibitory activity against trypsin (in words) (listed as SEQ ID NO: 66): excellent trypsin inhibitory activities; Residual trypsin activity (peptide 0.000098 μM): 107.0 ± 6.2%; Residual trypsin activity (peptide 0.00098 μM): 104.7 ± 2.1%; Residual trypsin activity (peptide 0.0098 μM): 106.2 ± 3.4%; Residual trypsin activity (peptide 0.0488 μM): 66.8 ± 8.2%; Residual trypsin activity (peptide 0.0585 μM): 55.7 ± 2.4%; Residual trypsin activity (peptide 0.0780 μM): 13.9 ± 4.2%; Residual trypsin activity (peptide 0.098 μM): 4.8 ± 0.7%; Residual trypsin activity (peptide 0.98 μM): 0.1 ± 0.0%; Residual trypsin activity (peptide 9.76 μM): 0.1 ± 0.0%
CC[C@H](C)[C@@H]1NC(=O)[C@@H]2CCCN2C(=O)[C@@H]2C[C@@H](O)CN2C(=O)[C@H]([C@@H](C)CC)NC(=O)[C@H](CO)NC(=O)[C@H](CCCCN)NC(=O)[C@H]([C@@H](C)O)NC(=O)[C@H](C)NC(=O)[C@H](CCCNC(=N)N)NC(=O)[C@H](C)NC(=O)[C@@H](N)CSSC[C@@H](C(=O)N[C@@H](Cc2ccccc2)C(=O)O)NC1=O [BT69] (H-CARATKSI[Hyp]PICF-OH; disulfide 1-12; C-terminus assumed) | 10 nM | 60 nM | excellent trypsin inhibitory activities | 
CC[C@H](C)[C@@H]1NC(=O)[C@@H]2C[C@@H](O)CN2C(=O)[C@@H]2CCCN2C(=O)[C@H]([C@@H](C)CC)NC(=O)[C@H](CO)NC(=O)[C@H](CCCCN)NC(=O)[C@H]([C@@H](C)O)NC(=O)[C@H](C)NC(=O)[C@H](CCCNC(=N)N)NC(=O)[C@H](C)NC(=O)[C@@H](N)CSSC[C@@H](C(=O)N[C@@H](Cc2ccccc2)C(=O)O)NC1=O [BT70] (H-CARATKSIP[Hyp]ICF-OH; disulfide 1-12; C-terminus assumed) | 30 nM |  | excellent trypsin inhibitory activities | 
CC[C@H](C)[C@@H]1NC(=O)[C@@H](N)CSSC[C@@H](C(=O)N[C@@H](Cc2ccccc2)C(=O)O)NC(=O)[C@H]([C@@H](C)CC)NC(=O)[C@@H]2CCCN2C(=O)[C@@H]2CCCN2C(=O)[C@H]([C@@H](C)CC)NC(=O)[C@H](CO)NC(=O)[C@H](CCCCN)NC(=O)[C@H]([C@@H](C)O)NC(=O)[C@H](C)NC(=O)[C@H](CCCNC(=N)N)NC1=O [BT73] (H-CIRATKSIPPICF-OH; disulfide 1-12; N-terminus and C-terminus assumed) | 30 nM | 120 nM |  | 

Continued, in another order:

Ki | IC50 | inhibitory activity against trypsin (in words) | Compound | further results
20 nM | 110 nM |  | CC[C@H](C)[C@@H]1NC(=O)[C@@H]2CCCN2C(=O)[C@@H]2CCCN2C(=O)[C@H]([C@@H](C)CC)NC(=O)[C@H](CO)NC(=O)[C@H](CCCCN)NC(=O)[C@H]([C@@H](C)O)NC(=O)[C@H](Cc2c[nH]cn2)NC(=O)[C@H](CCCNC(=N)N)NC(=O)CNC(=O)[C@@H](N)CSSC[C@@H](C(=O)N[C@@H](Cc2ccccc2)C(=O)O)NC1=O [BT56] (H-CGRHTKSIPPICF-OH; disulfide 1-12; N-terminus and C-terminus assumed) | 
30 nM | 130 nM | excellent trypsin inhibitory activities | CC[C@H](C)[C@@H]1NC(=O)[C@@H]2CCCN2C(=O)[C@@H]2CCCN2C(=O)[C@H]([C@@H](C)CC)NC(=O)[C@H](CO)NC(=O)[C@H](CCCCN)NC(=O)[C@H]([C@@H](C)O)NC(=O)[C@H](Cc2c[nH]c3ccccc23)NC(=O)[C@H](CCCNC(=N)N)NC(=O)CNC(=O)[C@@H](N)CSSC[C@@H](C(=O)N[C@@H](Cc2ccccc2)C(=O)O)NC1=O [BT57] (H-CGRWTKSIPPICF-OH; disulfide 1-12; C-terminus assumed) | 
30 nM | 120 nM |  | CC[C@H](C)[C@@H]1NC(=O)[C@@H]2CCCN2C(=O)[C@@H]2CCCN2C(=O)[C@H]([C@@H](C)CC)NC(=O)[C@H](CO)NC(=O)[C@H](CCCCN)NC(=O)[C@H]([C@@H](C)O)NC(=O)[C@H](CCC(=O)O)NC(=O)[C@H](CCCNC(=N)N)NC(=O)CNC(=O)[C@@H](N)CSSC[C@@H](C(=O)N[C@@H](Cc2ccccc2)C(=O)O)NC1=O [BT58] (H-CGRETKSIPPICF-OH; disulfide 1-12; N-terminus and C-terminus assumed) | 
90 nM |  | excellent trypsin inhibitory activities | CC[C@H](C)[C@@H]1NC(=O)[C@@H]2CCCN2C(=O)[C@@H]2CCCN2C(=O)[C@H]([C@@H](C)CC)NC(=O)[C@H](CO)NC(=O)[C@H](CCCCN)NC(=O)[C@H]([C@@H](C)O)NC(=O)CNC(=O)[C@H](CCCNC(=N)N)NC(=O)CNC(=O)[C@@H](N)CSSC[C@@H](C(=O)N[C@@H](Cc2ccccc2)C(=O)O)NC1=O [BT60] (H-CGRGTKSIPPICF-OH; disulfide 1-12) | 
10 nM | 50 nM | higher trypsin inhibitory activities | CC[C@H](C)[C@@H]1NC(=O)[C@@H]2CCCN2C(=O)[C@@H]2CCCN2C(=O)[C@H]([C@@H](C)CC)NC(=O)[C@H](CO)NC(=O)[C@H](CCCCN)NC(=O)[C@H]([C@@H](C)O)NC(=O)[C@H](C)NC(=O)[C@H](CCCNC(=N)N)NC(=O)[C@H](C)NC(=O)[C@@H](N)CSSC[C@@H](C(=O)N[C@@H](Cc2ccccc2)C(=O)O)NC1=O [BT67] (H-CARATKSIPPICF-OH; disulfide 1-12) | inhibitory activity against trypsin (in words) (listed as SEQ ID NO: 67): excellent trypsin inhibitory activities; Residual trypsin activity (peptide 0.000098 μM): 107.0 ± 5.5%; Residual trypsin activity (peptide 0.00098 μM): 104.4 ± 3.9%; Residual trypsin activity (peptide 0.0098 μM): 102.0 ± 2.4%; Residual trypsin activity (peptide 0.0488 μM): 49.6 ± 2.8%; Residual trypsin activity (peptide 0.0585 μM): 39.9 ± 1.7%; Residual trypsin activity (peptide 0.07317 μM): 8.1 ± 2.5%; Residual trypsin activity (peptide 0.098 μM): 1.5 ± 0.3%; Residual trypsin activity (peptide 0.98 μM): 0.1 ± 0.2%; Residual trypsin activity (peptide 9.76 μM): 0.1 ± 0.1%
20 nM | 110 nM | excellent trypsin inhibitory activities | CC[C@H](C)[C@@H]1NC(=O)[C@@H]2CCCN2C(=O)[C@@H]2CCCN2C(=O)[C@H]([C@@H](C)CC)NC(=O)[C@H](CO)NC(=O)[C@H](CCCCN)NC(=O)[C@H]([C@@H](C)O)NC(=O)[C@H](C)NC(=O)[C@H](CCCNC(=N)N)NC(=O)[C@H](C(C)C)NC(=O)[C@@H](N)CSSC[C@@H](C(=O)N[C@@H](Cc2ccccc2)C(=O)O)NC1=O [BT71] (H-CVRATKSIPPICF-OH; disulfide 1-12; N-terminus and C-terminus assumed) | 
30 nM | 130 nM |  | CC[C@H](C)[C@@H]1NC(=O)[C@@H]2CCCN2C(=O)[C@@H]2CCCN2C(=O)[C@H]([C@@H](C)CC)NC(=O)[C@H](CO)NC(=O)[C@H](CCCCN)NC(=O)[C@H]([C@@H](C)O)NC(=O)[C@H](C)NC(=O)[C@H](CCCNC(=N)N)NC(=O)[C@H](CC(C)C)NC(=O)[C@@H](N)CSSC[C@@H](C(=O)N[C@@H](Cc2ccccc2)C(=O)O)NC1=O [BT72] (H-CLRATKSIPPICF-OH; disulfide 1-12; N-terminus and C-terminus assumed) | 
